The record followed here is patent publication US7902373B2 (Pfizer Inc, priority 2006, dated 2011).

Each structure is given as a SMILES string.

The target of this experiment is human recombinant H-PGDS (Homo sapiens, UniProt O60760). Nature of the experiment: Fluorescence intensity h-PGDS TBA enzyme assay. Format: biochemical. The settings on record: Examples up to 622 (and 3a, 3b).
Sequence of human recombinant H-PGDS (O60760 whole entry): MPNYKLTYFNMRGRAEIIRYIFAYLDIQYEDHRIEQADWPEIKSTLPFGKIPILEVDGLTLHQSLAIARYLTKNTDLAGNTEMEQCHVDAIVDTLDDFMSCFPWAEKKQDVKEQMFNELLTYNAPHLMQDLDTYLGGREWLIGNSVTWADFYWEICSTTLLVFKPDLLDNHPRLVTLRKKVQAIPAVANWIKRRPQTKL
For orientation: IC50 means the concentration that inhibits the measured activity by half. As for `O=C(NC1CCN(c2nnnn2-c2ccccc2F)CC1)c1ccc(-c2cccc(F)c2)nc1` [Example 94, 6-(3-Fluorophenyl)-N-{1-[1-(2-fluorophenyl)-1H-tetrazol-5-yl]piperidin-4-yl}nicotinamide], the IC50 came out at 0.426 nM.

As to `Cc1ccc(-n2nnnc2N2CCC(NC(=O)c3ccc(-c4cccc(F)c4)nc3)CC2)cc1` [Example 95, 6-(3-Fluorophenyl)-N-{1-[1-(4-methylphenyl)-1H-tetrazol-5-yl]piperidin-4-yl}nicotinamide], the IC50 amounted to 0.764 nM.

`COc1ccccc1Cn1nnnc1N1CCC(NC(=O)c2ccc(-c3cccc(F)c3)nc2)CC1` [Example 96, 6-(3-Fluorophenyl)-N-{1-[1-(2-methoxybenzyl)-1H-tetrazol-5-yl]piperidin-4-yl}nicotinamide]: the IC50 was 1.19 nM.

In the case of `CC(C)n1nnnc1N1CCC(NC(=O)c2ccc(-c3cccc(F)c3)nc2)CC1` [Example 97, 6-(3-Fluorophenyl)-N-[1-(1-isopropyl-1H-tetrazol-5-yl)piperidin-4-yl]nicotinamide], the 50% inhibitory concentration (IC50) worked out at 0.319 nM.

Regarding `CCOC(=O)c1cccc(-n2nnnc2N2CCC(NC(=O)c3ccc(-c4cccc(F)c4)nc3)CC2)c1` [Example 98, Ethyl 3-{5-[4-({[6-(3-fluorophenyl)pyridin-3-yl]carbonyl}amino)piperidin-1-yl]-1H-tetrazol-1-yl}benzoate], the IC50 was found to be 3.7 nM.

For the compound `O=C(NC1CCN(c2nnnn2CC2CC2)CC1)c1ccc(-c2cccc(F)c2)nc1` [Example 99, N-{1-[1-(Cyclopropylmethyl)-1H-tetrazol-5-yl]piperidin-4-yl}-6-(3-fluorophenyl)nicotinamide], the IC50 amounted to 2.08 nM.

As to `CC(C)OC(=O)Cn1nnnc1N1CCC(NC(=O)c2ccc(-c3cccc(F)c3)nc2)CC1` [Example 100, Isopropyl {5-[4-({[6-(3-fluorophenyl)pyridin-3-yl]carbonyl}amino)piperidin-1-yl]-1H-tetrazol-1-yl}acetate], the IC50 worked out at 1.53 nM.

For the compound `COCC(C)n1nnnc1N1CCC(NC(=O)c2ccc(-c3cccc(F)c3)nc2)CC1` (stereo not shown) [Example 101, 6-(3-fluorophenyl)-N-{1-[1-(2-methoxy-1-methylethyl)-1H-tetrazol-5-yl]piperidin-4-yl}nicotinamide], the IC50 is 1.4 nM.

As to `N#Cc1ccc(Cn2nnnc2N2CCC(NC(=O)c3ccc(-c4cccc(F)c4)nc3)CC2)cc1` [Example 102, N-{1-[1-(4-Cyanobenzyl)-1H-tetrazol-5-yl]piperidin-4-yl}-6-(3-fluorophenyl)nicotinamide], the IC50 is 0.943 nM.

As to `CCOc1cccc(-n2nnnc2N2CCC(NC(=O)c3ccc(-c4cccc(F)c4)nc3)CC2)c1` [Example 103, N-{1-[1-(3-Ethoxyphenyl)-1H-tetrazol-5-yl]piperidin-4-yl}-6-(3-fluorophenyl)nicotinamide], the IC50 was 2.15 nM.

On to `C[C@H](c1ccccc1)n1nnnc1N1CCC(NC(=O)c2ccc(-c3cccc(F)c3)nc2)CC1` [Example 104, 6-(3-Fluorophenyl)-N-(1-{1-[(1R)-1-phenylethyl]-1H-tetrazol-5-yl}piperidin-4-yl)nicotinamide], for which the IC50 was determined as 3.18 nM.

Take `O=C(NC1CCN(c2ncnc3c2ncn3CC(F)(F)F)CC1)c1ccc(-c2cccc(F)c2)nc1` [Example 106]: the concentration for half-maximal inhibition (IC50) came out at 0.873 nM.

In the case of `O=C(NC1CCN(c2ncnc3c2ncn3CCN2CCCCC2)CC1)c1ccc(-c2cccc(F)c2)nc1` [Example 107, 6-(3-Fluorophenyl)-N-{1-[9-(2-piperidin-1-ylethyl)-9H-purin-6-yl]piperidin-4-yl}nicotinamide], the IC50 was 0.804 nM.

Consider `COc1cccc(Cn2nnnc2N2CCC(NC(=O)c3ccc(-c4cccc(F)c4)nc3)CC2)c1` [Example 108, 6-(3-Fluorophenyl)-N-{1-[1-(3-methoxybenzyl)-1H-tetrazol-5-yl}piperidin-4-yl)nicotinamide], for which the IC50 was found to be 1.29 nM.

Turning to `Cn1c(-c2cccc(O)c2)nc2c(N3CCC(NC(=O)c4ccc(-c5cccc(F)c5)nc4)CC3)ncnc21` [Example 109, 6-(3-Fluorophenyl)-N-{1-[8-(3-hydroxyphenyl)-9-methyl-9H-purin-6-yl]piperidin-4-yl}nicotinamide], the IC50 was found to be 2.74 nM.

On to `CCC(COC)n1cnc2c(N3CCC(NC(=O)c4ccc(-c5cccc(F)c5)nc4)CC3)ncnc21` (stereo not shown) [Example 110, 6-(3-Fluorophenyl)-N-(1-{9-[1-(methoxymethyl)propyl]-9H-purin-6-yl}piperidin-4-yl)nicotinamide], for which the IC50 amounted to 1.61 nM.

As for `N#Cc1ccc(C(=O)c2cccnc2N2CCC(NC(=O)c3ccc(-c4cccc(F)c4)nc3)CC2)cc1` [Example 111, N-{1-[3-(4-Cyanobenzoyl)pyridin-2-yl]piperidin-4-yl}-6-(3-fluorophenyl)nicotinamide], the IC50 was found to be 1.62 nM.

Regarding `O=C(NC1CCN(c2ncnc3c2ncn3C2CCCC2)CC1)c1ccc(-c2cccc(F)c2)nc1` [Example 112, N-[1-(9-Cyclopentyl-9H-purin-6-yl)piperidin-4-yl]-6-(3-fluorophenyl)nicotinamide], the IC50 came to 1.87 nM.

As for `COCCNC(=O)c1ccc(N2CCC(NC(=O)c3ccc(-c4cccc(F)c4)nc3)CC2)nc1` [Example 113, 6-(3-Fluorophenyl)-N-[1-(5-{[(2-methoxyethyl)amino]carbonyl}pyridin-2-yl)piperidin-4-yl]nicotinamide], the IC50 stood at 0.263 nM.

On to `O=C(NC1CCN(c2ccc(C(=O)N3CCCC3)cn2)CC1)c1ccc(-c2cccc(F)c2)nc1` [Example 114, 6-(3-Fluorophenyl)-N-{1-[5-(pyrrolidin-1-ylcarbonyl)pyridin-2-yl]piperidin-4-yl}nicotinamide], for which the half-maximal inhibitory concentration (IC50) amounted to 2.3 nM.

Take `O=C(NC1CCN(c2ncnc3c2ncn3C2CC2)CC1)c1ccc(-c2cccc(F)c2)nc1` [Example 115, N-[1-(9-Cyclopropyl-9H-purin-6-yl)piperidin-4-yl]-6-(3-fluorophenyl)nicotinamide]: the IC50 amounted to 0.241 nM.

For `Cc1cc(N2CCC(NC(=O)c3ccc(-c4cccc(F)c4)nc3)CC2)nc(N2CCCCC2)n1` [Example 116, 6-(3-Fluorophenyl)-N-[1-(6-methyl-2-piperidin-1-ylpyrimidin-4-yl)piperidin-4-yl]nicotinamide], the half-maximal inhibitory concentration (IC50) was determined as 2.56 nM.

Consider `O=C(NC1CCN(c2ncnc3cc(F)ccc23)CC1)c1ccc(-c2cccc(F)c2)nc1` [Example 117, 6-(3-Fluorophenyl)-N-[1-(7-fluoroquinazolin-4-yl)piperidin-4-yl]nicotinamide], for which the IC50 amounted to 0.429 nM.

For the compound `CC(C)n1cnc2c(N3CCC(NC(=O)c4ccc(-c5cccc(F)c5)nc4)CC3)ncnc21` [Example 118, 6-(3-Fluorophenyl)-N-[1-(9-isopropyl-9H-purin-6-yl)piperidin-4-yl]nicotinamide], the IC50 worked out at 0.89 nM.

For the compound `O=C(NC1CCN(c2nccc(-c3ccccc3CCO)n2)CC1)c1ccc(-c2cccc(F)c2)nc1` [Example 119, 6-(3-Fluorophenyl)-N-(1-{4-[2-(2-hydroxyethyl)phenyl]pyrimidin-2-yl}piperidin-4-yl)nicotinamide], the IC50 was determined as 3.74 nM.

Consider `CCOC(=O)c1cnc(N2CCC(NC(=O)c3ccc(-c4cccc(F)c4)nc3)CC2)cc1N1CCOCC1` [Example 120, Ethyl 6-[4-({[6-(3-fluorophenyl)pyridin-3-yl]carbonyl}amino)piperidin-1-yl]-4-morpholin-4-ylnicotinate], for which the IC50 amounted to 3.49 nM.

Regarding `Cc1nc(N2CCC(NC(=O)c3ccc(-c4cccc(F)c4)nc3)CC2)c(C#N)cc1F` [Example 121, N-[1-(3-Cyano-5-fluoro-6-methylpyridin-2-yl)piperidin-4-yl]-6-(3-fluorophenyl)nicotinamide], the IC50 stood at 1.21 nM.

Regarding `COc1ccc2c(N3CCC(NC(=O)c4ccc(-c5cccc(F)c5)nc4)CC3)ncnc2c1OC` [Example 122, N-[1-(7,8-Dimethoxyquinazolin-4-yl)piperidin-4-yl]-6-(3-fluorophenyl)nicotinamide], the concentration for half-maximal inhibition (IC50) was 0.168 nM.

As for `COc1cc2c(N3CCC(NC(=O)c4ccc(-c5cccc(F)c5)nc4)CC3)ncnc2c(OC)c1OC` [Example 123, 6-(3-Fluorophenyl)-N-[1-(678-trimethoxyquinazolin-4-yl)piperidin-4-yl]nicotinamide], the half-maximal inhibitory concentration (IC50) worked out at 4.66 nM.

`O=C(NC1CCN(c2ncnc3[nH]ccc23)CC1)c1ccc(-c2cccc(F)c2)nc1` [Example 124, 6-(3-fluorophenyl)-N-[1-(7H-pyrrolo[23-d]pyrimidin-4-yl)piperidin-4-yl]nicotinamide]: the IC50 came to 0.345 nM.

`Cn1cnc2c(N3CCC(NC(=O)c4ccc(-c5cccc(F)c5)nc4)CC3)ncnc21` [Example 125, 6-(3-Fluorophenyl)-N-[1-(9-methyl-9H-purin-6-yl)piperidin-4-yl]nicotinamide]: the half-inhibitory concentration (IC50) turned out to be 0.176 nM.

With `N#Cc1cnc(N2CCC(NC(=O)c3ccc(-c4cccc(F)c4)nc3)CC2)nc1N` [Example 126, N-[1-(4-Amino-5-cyanopyrimidin-2-yl)piperidin-4-yl]-6-(3-fluorophenyl)nicotinamide], the IC50 is 0.656 nM.

On to `O=C(NC1CCN(c2ncc(Br)cn2)CC1)c1ccc(-c2cccc(F)c2)nc1` [Example 127, N-[1-(5-Bromopyrimidin-2-yl)piperidin-4-yl]-6-(3-fluorophenyl)nicotinamide], for which the IC50 stood at 4.01 nM.

`O=C(NC1CCN(c2nccc(Nc3cc[nH]n3)n2)CC1)c1ccc(-c2cccc(F)c2)nc1` [Example 128, 6-(3-Fluorophenyl)-N-{1-[4-(1H-pyrazol-3-ylamino)pyrimidin-2-yl]piperidin-4-yl}nicotinamide]: the IC50 was 0.687 nM.

Turning to `O=C(NC1CCN(c2ncnc3[nH]ncc23)CC1)c1ccc(-c2cccc(F)c2)nc1` [Example 129, 6-(3-Fluorophenyl)-N-[1-(1H-pyrazolo[3,4-d]pyrimidin-4-yl)piperidin-4-yl]nicotinamide], the IC50 came to 6.24 nM.

For the compound `COc1cc2nc(N3CCC(NC(=O)c4ccc(-c5cccc(F)c5)nc4)CC3)nc(N)c2cc1OC` [Example 130, N-[1-(4-Amino-6,7-dimethoxyquinazolin-2-yl)piperidin-4-yl]-6-(3-fluorophenyl)nicotinamide], the IC50 was 4.57 nM.

Consider `Cc1nnc(N2CCC(NC(=O)c3ccc(-c4cccc(F)c4)nc3)CC2)c2ccccc12` [Example 131, 6-(3-Fluorophenyl)-N-[1-(4-methylphthalazin-1-yl)piperidin-4-yl]nicotinamide], for which the IC50 was 0.463 nM.
